Consider 19 molecules from patent EP3057951B1, “METHYLENE LINKED QUINOLINYL MODULATORS OF ROR-GAMMA-T” (Janssen Pharmaceutica NV, priority 2013, dated 2015).

In general, pKd refers to the Kd on a negative log10 scale, so that one unit is a factor of ten. Broadly, the pIC50 is −log10 of the IC50, conventionally taken in molar units. The low end stands for a high IC50, the high end for a low IC50.

Structures are written as SMILES. pIC50, pKd: −log10 of the molar value. Counter-ions that a name gives are not always drawn. Like-named read-outs stand apart in the source and are kept apart here. Some results are limits rather than exact numbers.

For assay [1], the target named is T1, wild type human RORγt ligand binding domain (RORyt LBD) (Homo sapiens, UniProt P51449).
T1 construct: His-tag (N); TurboTEV protease cleavage site (ENLYFQG) (N); made in house; host or cells: E. coli (pHIS1, modified pET vector)
T1 sequence (P51449 258-518): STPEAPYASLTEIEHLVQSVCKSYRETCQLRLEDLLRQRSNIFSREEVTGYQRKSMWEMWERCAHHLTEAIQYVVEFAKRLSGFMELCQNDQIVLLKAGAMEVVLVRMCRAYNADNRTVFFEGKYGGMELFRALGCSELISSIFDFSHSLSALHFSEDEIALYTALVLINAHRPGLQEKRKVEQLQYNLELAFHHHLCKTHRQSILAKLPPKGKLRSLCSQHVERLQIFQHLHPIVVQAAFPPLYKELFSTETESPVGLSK
The experiment in a line: RORγt ThermoFluor assay (thermal shift, binding affinity KD).

Assay [2] has as its target T2, wild type human RORγt LBD (Homo sapiens, UniProt P51449).
T2 construct: expressed in transfected cells; host or cells: HEK293T
T2 sequence (P51449 258-518): T1 sequence (P51449 258-518)
Put plainly: RORγt (LBD) Reporter Assay (GAL4-luciferase, HEK293T cells). The settings on record: for inhibition at 6 µM: HEK-293T, read-out: RORγt (LBD) Reporter Assay, % inhibition @ 6 µM, 6 µM compound concentration; for RORγt (LBD) Reporter Assay, % inhibition @ 6 µM: 6 µM compound concentration. The class given is cell-based. Background: In a reporter assay the amount or activity of a reporter protein is the signal.

The mark [3] stands for this setting: HEK293T cells, value after the comma with ∼, > or < could not be included in the average.

Consider `Cn1cncc1C(O)(c1ccc(C(F)(F)F)nc1)c1ccc2nc(N3CC(O)C3)c(Cc3ccc(-n4cccn4)cc3)c(Cl)c2c1` (single isomer, unassigned) [Example 134b, 1-(4-Chloro-6-{hydroxy(1-methyl-1H-imidazol-5-yl)[6-(trifluoromethyl)pyridin-3-yl]methyl}-3-[4-(1H-pyrazol-1-yl)benzyl]quinolin-2-yl)azetidin-3-ol], for which the negative logarithm of the Kd (pKd) in assay [1] is 6.66. In assay [2] (HEK293T cells), the pIC50 is 6.38 and the inhibition at 6 µM worked out at 101%.
With `COc1nc2ccc(C(O)(c3cnnn3C)c3cnc(C)n3C)cc2c(Cl)c1Cc1ccc(C(F)(F)F)nc1` (stereo not drawn) [Example 43a, (4-Chloro-2-methoxy-3-((6-(trifluoromethyl)pyridin-3-yl)methyl)quinolin-6-yl)(1,2-dimethyl-1H-imidazol-5-yl)(1-methyl-1H-1,2,3-triazol-5-yl)methanol], in assay [1], the negative-log Kd (pKd) is 9.00. This molecule also showed a pIC50 in assay [2] (setting [3]) of 8.10. Further, in assay [2], the inhibition at 6 µM came to 98%.
In the case of `Cc1ccc(C(O)(c2ccc3nc(N4CCC4)c(Cc4ccc(-n5cccn5)cc4)c(Cl)c3c2)c2cnnn2C)c(C)n1` (stereo not drawn) [Example 141a, {2-Azetidin-1-yl-4-chloro-3-[4-(1H-pyrazol-1-yl)benzyl]quinolin-6-yl}(2,6-dimethylpyridin-3-yl)(1-methyl-1H-1,2,3-triazol-5-yl)methanol], in assay [1], the negative-log Kd (pKd) is 4.96. Besides, in assay [2] (HEK293T cells), the pIC50 is below 5.22 and the inhibition at 6 µM turned out to be 42%.
Consider `COc1c(Cc2ccccc2)c(C(F)(F)F)nc2ccc(C(O)(c3ccc(C(F)(F)F)nc3)c3cncn3C)cc12` (single isomer, unassigned) [Example 106c, (3-Benzyl-4-methoxy-2-(trifluoromethyl)quinolin-6-yl)(1-methyl-1H-imidazol-5-yl)(6-(trifluoromethyl)pyridin-3-yl)methanol], for which the pKd in assay [1] was 7.74. Moreover, the “RORγt (LBD) Reporter Assay, % inhibition @ 6 µM” value (“RORγt … % inhibition @ 6 µM” below) in assay [2] (6 µM) amounted to 65%. Besides, the pIC50 in assay [2] (setting [3]) was around 5.30.
Taken in the same sequence, the figures for `Cn1cncc1C(O)(c1ccc(C(F)(F)F)nc1)c1ccc2nc(C(F)(F)F)c(Cc3ccccc3)c(C#N)c2c1` (single isomer, unassigned) [Example 108b, 3-Benzyl-6-(hydroxy(1-methyl-1H-imidazol-5-yl)(6-(trifluoromethyl)pyridin-3-yl)methyl)-2-(trifluoromethyl)quinoline-4-carbonitrile] were 8.92, 55% and 5.96.
With `Cc1ccc(C(O)(c2ccc3nc(Cl)c(Cc4ccc(C(F)(F)F)cc4)c(NC4CC4)c3c2)c2cnnn2C)c(C)n1` (stereo not drawn) [Example 144a, {2-Chloro-4-(cyclopropylamino)-3-[4-(trifluoromethyl)benzyl]quinolin-6-yl}(2,6-dimethylpyridin-3-yl)(1-methyl-1H-1,2,3-triazol-5-yl)methanol], the pKd in assay [1] was 7.92. For the same molecule, in assay [2] (HEK293T cells), the negative logarithm of the IC50 (pIC50) is 7.13 and the inhibition at 6 µM turned out to be 99%.
For the molecule `Cn1cncc1C(O)(c1ccc2nc(C(F)(F)F)c(Cc3ccccc3)c(C#N)c2c1)c1ccccn1` (racemic) [Example 99a, 3-Benzyl-6-(hydroxy(1-methyl-1H-imidazol-5-yl)(pyridin-2-yl)methyl)-2-(trifluoromethyl)quinoline-4-carbonitrile•TFA], in assay [1], the pKd is 7.70. Besides, the pIC50 in assay [2] (setting [3]) is 7.01. In addition, the inhibition at 6 µM in assay [2] was determined as 93%.
As for `COc1nc2ccc(C(O)(c3cnnn3C)c3cnc(C)n3C)cc2c(C#N)c1Cc1ccc(C(F)(F)F)nc1` (single isomer, unassigned) [Example 44c, 6-((1,2-Dimethyl-1H-imidazol-5-yl)(hydroxy)(1-methyl-1H-1,2,3-triazol-5-yl)methyl)-2-methoxy-3-((6-(trifluoromethyl)pyridin-3-yl)methyl)quinoline-4-carbonitrile], the pKd in assay [1] is 8.05. In addition, the “RORγt … % inhibition @ 6 µM” value in assay [2] worked out at 99%. Besides, in assay [2] (setting [3]), the negative-log IC50 (pIC50) was 7.72.
Regarding `Cc1ccc(C(O)(c2ccc3nc(N4CC(F)(F)C4)c(Cc4ccc(C(F)(F)F)cc4)c(Cl)c3c2)c2cnnn2C)c(C)n1` (single isomer, unassigned) [Example 148c, {4-Chloro-2-(3,3-difluoroazetidin-1-yl)-3-[4-(trifluoromethyl)benzyl]quinolin-6-yl}(2,6-dimethylpyridin-3-yl)(1-methyl-1H-1,2,3-triazol-5-yl)methanol], the negative logarithm of the Kd (pKd) in assay [1] is 9.41. In addition, in assay [2] (HEK293T cells, 6 µM), the “RORγt … % inhibition @ 6 µM” value was determined as 98%. The molecule further showed a pIC50 in assay [2] (HEK293T cells) of around 8.22.
Take `Cn1cncc1C(O)(c1ccc(C(F)(F)F)nc1)c1ccc2nc(N3CC(F)C3)c(Cc3ccc(-n4cccn4)cc3)c(Cl)c2c1` (single isomer, unassigned) [Example 147b, {4-Chloro-2-(3-fluoroazetidin-1-yl)-3-[4-(1H-pyrazol-1-yl)benzyl]quinolin-6-yl}(1-methyl-1H-imidazol-5-yl)[6-(trifluoromethyl)pyridin-3-yl]methanol]: in assay [1], the pKd is 7.22. Further, in assay [2] (HEK293T cells), the pIC50 was 6.68 and the inhibition at 6 µM came to 99%.
As to `COc1nc2ccc(C(O)(c3ccc(C)nc3C)C3CN(C(=O)OC(C)(C)C)C3)cc2c(Cl)c1Cc1ccc(C(F)(F)F)cc1` (stereo not drawn) [Example 125, tert-Butyl-3-((4-chloro-2-methoxy-3-(4-(trifluoromethyl)benzyl)quinolin-6-yl)(2,6-dimethylpyridin-3-yl)(hydroxy)methyl)azetidine-1-carboxylate], in assay [1], the negative-log Kd (pKd) was 8.03. Moreover, in assay [2] (HEK293T cells), the pIC50 is 6.54 and the inhibition at 6 µM is 100%.
For `COc1nc2ccc(C(O)(c3ccc(C)nc3C)c3cnnn3C)cc2c(Cl)c1Cc1ccc(N(C)C)cc1` (stereo not drawn) [Example 24a, (4-Chloro-3-(4-(dimethylamino)benzyl)-2-methoxyquinolin-6-yl)(2,6-dimethylpyridin-3-yl)(1-methyl-1H-1,2,3-triazol-5-yl)methanol], the negative-log Kd (pKd) in assay [1] is 8.82. Besides, in assay [2] (setting [3]), the negative logarithm of the IC50 (pIC50) is 8.34. Besides, the inhibition at 6 µM in assay [2] is 100%.
Take `COc1nc2ccc(C(O)(c3cncn3C)c3cnnn3C)cc2c(Cl)c1Cc1ccc(C(F)(F)F)cc1` (single isomer, unassigned) [Example 89b, (4-Chloro-2-methoxy-3-(4-(trifluoromethyl)benzyl)quinolin-6-yl)(1-methyl-1H-1,2,3-triazol-5-yl)(1-methyl-1H-imidazol-5-yl)methanol]: the pKd in assay [1] was 8.92. In assay [2] (setting [3]), this molecule had a pIC50 above 8.70. Besides, in assay [2], the inhibition at 6 µM came out at 97%.
Turning to `Cn1cncc1C(O)(c1ccc2nc(C(F)(F)F)c(Cc3ccccc3)c(O)c2c1)c1ccccn1` (stereo not drawn) [Example 152, 3-Benzyl-6-(hydroxy(1-methyl-1H-imidazol-5-yl)(pyridin-2-yl)methyl)-2-(trifluoromethyl)quinolin-4-ol^.TFA], the negative-log Kd (pKd) in assay [1] was 4.42. Further, in assay [2] (HEK293T cells), the negative-log IC50 (pIC50) is 5.32 and the inhibition at 6 µM is 70%.
As for `Cn1cncc1C(O)(c1ccc(C(F)(F)F)nc1)c1ccc2nc(N3CC(F)(F)C3)c(Cc3ccc(-n4cccn4)cc3)c(Cl)c2c1` (single isomer, unassigned) [Example 135c, {4-Chloro-2-(3,3-difluoroazetidin-1-yl)-3-[4-(1H-pyrazol-1-yl)benzyl]quinolin-6-yl}(1-methyl-1H-imidazol-5-yl)[6-(trifluoromethyl)pyridin-3-yl]methanol], in assay [1], the negative logarithm of the Kd (pKd) was 7.64. Further, the “RORγt … % inhibition @ 6 µM” value in assay [2] (HEK293T cells, 6 µM) was determined as 95%. The pIC50 in assay [2] (HEK293T cells) was 7.11.
For the molecule `Cn1cncc1C(O)(c1ccc(C(F)(F)F)nc1)c1ccc2nc(N3CC(F)(F)C3)c(Cc3ccc(-n4cccn4)cc3)c(Cl)c2c1` (stereo not drawn) [Example 135a, {4-Chloro-2-(3,3-difluoroazetidin-1-yl)-3-[4-(1H-pyrazol-1-yl)benzyl]quinolin-6-yl}(1-methyl-1H-imidazol-5-yl)[6-(trifluoromethyl)pyridin-3-yl] methanol.TFA], the negative logarithm of the Kd (pKd) in assay [1] was 7.44. In assay [2] (HEK293T cells), the negative-log IC50 (pIC50) is 6.57 and the inhibition at 6 µM is 97%.
On to `COc1nc2ccc(C(O)(c3ccc(C#N)cc3)c3cncn3C)cc2c(Cl)c1Cc1ccc(C(F)(F)F)nc1` (single isomer, unassigned) [Example 38b, 4-((4-Chloro-2-methoxy-3-((6-(trifluoromethyl)pyridin-3-yl)methyl)quinolin-6-yl)(hydroxy)(1-methyl-1H-imidazol-5-yl)methyl)benzonitrile], for which the negative logarithm of the Kd (pKd) in assay [1] was 6.82. In addition, in assay [2] (setting [3]), the negative logarithm of the IC50 (pIC50) is 6.60. Further, in assay [2], the inhibition at 6 µM amounted to 94%.
With `COc1nc2ccc(C(O)(c3cnnn3C)C3CCOCC3)cc2c(Cl)c1Cc1ccc(C(F)(F)F)cc1` (single isomer, unassigned) [Example 85c, (4-Chloro-2-methoxy-3-(4-(trifluoromethyl)benzyl)quinolin-6-yl)(1-methyl-1H-1,2,3-triazol-5-yl)(tetrahydro-2H-pyran-4-yl)methanol], in assay [1], the pKd is 8.55. For the same molecule, the “RORγt … % inhibition @ 6 µM” value in assay [2] (6 µM) came to 100%. The molecule further had a pIC50 in assay [2] (setting [3]) of 7.77.
With `Cc1ccc(C(O)(c2ccc3nc(NC4CC4)c(Cc4ccc(C(F)(F)F)cc4)c(Cl)c3c2)c2cnnn2C)c(C)n1` (single isomer, unassigned) [Example 143c, {4-Chloro-2-(cyclopropylamino)-3-[4-(trifluoromethyl)benzyl]quinolin-6-yl}(2,6-dimethylpyridin-3-yl)(1-methyl-1H-1,2,3-triazol-5-yl)methanol], the pKd in assay [1] is 8.66. Further, in assay [2] (HEK293T cells, 6 µM), the “RORγt … % inhibition @ 6 µM” value came out at 102%. In assay [2] (HEK293T cells), this molecule gave a negative logarithm of the IC50 (pIC50) of around 8.00.
